Laboratory results from patent US9364479B2, “Use of a receptor-type kinase modulator for treating polycystic kidney disease” (SYMPHONY EVOLUTION, INC., priority 2010, dated 2016).
Where “and” joins values, the source holds several entries; their conditions need not be identical. Identical values can stand only once.

How the values were obtained:
[1] = system: MDA-MB-231 xenograft tumors; test: Immunohistochemistry of MDA-MB-231 xenograft tumors (Ki67, CD31); type: in vivo, mouse; conditions: 100 mg/kg, relative to vehicle
Procedure: For immunohistochemical analysis of H1975, MDA-MB-231 and other xenografts, tumors were excised after euthanasia and fixed in zinc fixative (BD Biosciences) for 48 h before being processed into paraffin blocks. Serial sections at 5 μm were obtained from the area of largest possible surface for each tumor and stained using standard methods. The following antibodies were used: Ki67 (SP6; Labvision), CD31 (MECA.32; BD Biosciences), pERK^Thr202/Tyr204 (phospho-p44/42 mitogen-activated protein kinase; Cell Signaling Technology), pAKT^Ser473 (Cell Signaling Technology), and pEGFR^Tyr1068 (Cell Signaling Technology). For immunofluorescent staining, sections were then incubated with Alexa 594-conjugated goat anti-rabbit secondary antibody (Invitrogen) and mounted in Fluorescent Mounting Medium (DAKO) containing 4′,6-diamidino-2-phenylindole (Molecular Probes) as a nuclear counterstain. Fluorescent staining was visualized using a Zeiss Axiolmager and digitally captured using a Zeiss high-resolution camera coupled to AxioVision image analysis software. Two to three nonoverlapping representative fields were captured at ×200 or ×400 magnification depending on histologic readout and quantified using the integrated morphometric analysis functions in Metamorph software (Universal Imaging Corp.). Apoptotic cells were detected using terminal deoxynucleotidyl transferase-mediated dUTP nick end labeling in situ cell death detection kit according to the manufacturer's instructions (Roche Diagnostics GmbH).
CD31-positive tumor vessels, Ki67-positive proliferating cells, and pERK staining in each tumor section were identified and quantified using the integrated morphometric analysis functions in the ACIS automatic cellular imaging system (Clarient, Inc.) and reviewed by a blinded observer. Number of CD31-positive vessels were identified across 5 to 10 randomly chosen fields of equal size at ×100 magnification in viable tumor tissue and calculated as number of vessels per square millimeter for each tumor, averaged for each treatment group, and compared with vehicle-treated controls. Percentage Ki67-positive cells were calculated as the ratio between Ki67-positive cells divided by the total number of cells identified across 5 to 10 randomly chosen fields of equal size in viable tumor tissue. The results for each tumor and treatment group were averaged and compared with vehicle-treated controls. The level of pERK staining was determined as described above and calculated as the ratio of antibody staining divided by the total number of cells identified, averaged for each treatment group, and compared with vehicle-treated controls.
Tumor proliferation was measured by staining for Ki67, which […]. The degree of tumor vascularization was measured by staining with the endothelial cell marker CD31 (Table 20).

EphB4 = target: T1, EphB4 (Homo sapiens, UniProt P54760); test: Radiometric 33P-phosphoryl transfer kinase assay; type: biochemical; conditions: ATP at Km
T1 construct: residues E605-E890 of human EphB4 containing a six histidine NH2-terminal tag; His6 (N); made in house; host or cells: baculovirus expression system
T1 sequence (P54760 605-890): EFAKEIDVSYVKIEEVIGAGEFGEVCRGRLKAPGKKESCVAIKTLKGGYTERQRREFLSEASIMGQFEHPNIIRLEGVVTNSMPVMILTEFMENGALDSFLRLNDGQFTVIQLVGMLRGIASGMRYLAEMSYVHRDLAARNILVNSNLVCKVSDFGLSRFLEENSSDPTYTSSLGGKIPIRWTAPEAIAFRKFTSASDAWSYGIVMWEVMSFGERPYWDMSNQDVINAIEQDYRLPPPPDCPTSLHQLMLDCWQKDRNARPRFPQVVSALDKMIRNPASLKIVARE
Procedure: (§1) Dose-response experiments were done using 10 different inhibitor concentrations in 384-well microtiter plates. The ATP concentration used for each assay was equivalent to the Km for each kinase. IC50 values were calculated by nonlinear regression analysis using the four-variable equation: Y=min+(max−min)/[1+([I]/IC50)N], where Y is the observed signal, [I] is the inhibitor concentration, min is the background signal in the absence of enzyme (0% enzyme activity), max is the signal in the absence of inhibitor (100% enzyme activity), IC50 is the inhibitor concentration required at 50% enzyme inhibition, and N represents the empirical Hill slope as a measure of cooperativity.
(§2) A radiometric ^33P-Phosphoryl transfer kinase assay was used to measure EphB4, insulin-like growth factor-I receptor (IGFR-1), and insulin receptor (IRK) activity. Reactions were performed in 384-well white, clear bottom, high-binding microtiter plates (Greiner). Plates were coated with 2 μg/well peptide substrate in a 50 μL volume. […] The coated plates were washed once with 50 μL assay buffer following overnight incubation at room temperature. Test compound and either 5 nmol/L EphB4 (residues E605-E890 of human EphB4 containing a six histidine NH2-terminal tag, expressed in a baculovirus expression system and purified using metal chelate chromatography), 4 nmol/L insulin-like growth factor-I receptor (residues M954-C1367 of human insulin-like growth factor-I receptor, Proqinase GmbH), or 15 nmol/L insulin receptor 1 (residues P948-S1343 of human insulin receptor 1, Proqinase) were combined with [^33P]g-ATP (5 μmol/L, 3.3 μCi/nmol) in a total volume of 20 μL. The reaction mixture was incubated at room temperature for 1.5 to 2.5 h and terminated by aspiration. The microtiter plates were subsequently washed six times with 0.05% Tween-PBS buffer. Scintillation fluid (50 μL/well) was added and incorporated ^33P was measured by liquid scintillation spectrometry using a MicroBeta scintillation counter (Perkin-Elmer).

IGF1R = target: T2, IGF1R (Homo sapiens, UniProt P08069); test: Radiometric 33P-phosphoryl transfer kinase assay; type: biochemical; conditions: ATP at Km
T2 construct: residues M954-C1367 of human insulin-like growth factor-I receptor, Proqinase GmbH; purchased Proqinase GmbH
T2 sequence (P08069 954-1367): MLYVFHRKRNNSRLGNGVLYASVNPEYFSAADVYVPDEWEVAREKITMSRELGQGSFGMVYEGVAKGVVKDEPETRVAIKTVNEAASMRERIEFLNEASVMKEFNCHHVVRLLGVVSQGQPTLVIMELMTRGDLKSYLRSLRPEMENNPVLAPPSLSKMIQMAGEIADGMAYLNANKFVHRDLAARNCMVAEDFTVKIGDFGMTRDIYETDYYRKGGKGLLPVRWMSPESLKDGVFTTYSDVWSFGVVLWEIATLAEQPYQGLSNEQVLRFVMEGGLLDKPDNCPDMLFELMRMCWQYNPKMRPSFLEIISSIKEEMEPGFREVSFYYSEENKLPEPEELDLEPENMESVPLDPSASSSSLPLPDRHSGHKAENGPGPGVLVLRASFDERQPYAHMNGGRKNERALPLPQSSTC
Procedure: as §1, §2

InsR = target: T3, InsR (Homo sapiens, UniProt P06213); test: Radiometric 33P-phosphoryl transfer kinase assay; type: biochemical; conditions: ATP at Km
T3 construct: residues P948-S1343 of human insulin receptor 1, Proqinase; purchased Proqinase
T3 sequence (P06213 987-1382): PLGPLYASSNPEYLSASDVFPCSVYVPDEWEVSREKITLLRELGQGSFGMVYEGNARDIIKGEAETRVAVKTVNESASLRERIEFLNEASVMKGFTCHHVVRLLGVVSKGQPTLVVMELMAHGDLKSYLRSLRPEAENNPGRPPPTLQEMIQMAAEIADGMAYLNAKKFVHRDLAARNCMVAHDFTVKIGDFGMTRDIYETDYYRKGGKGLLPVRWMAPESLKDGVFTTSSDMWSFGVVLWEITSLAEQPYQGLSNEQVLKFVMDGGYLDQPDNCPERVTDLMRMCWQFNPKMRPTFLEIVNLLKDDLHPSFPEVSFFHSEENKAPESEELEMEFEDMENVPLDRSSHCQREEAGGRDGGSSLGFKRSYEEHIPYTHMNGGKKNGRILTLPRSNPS
Procedure: as §1, §2

[2] = system: Vasoactive Intestinal Peptide, Non-selective; test: NovaScreen assay; type: binding
[3] = system: Adrenergic, Beta, Non-selective; test: NovaScreen assay; type: binding

Structure (SMILES): COc1cc2c(Nc3ccc(Cl)c(Cl)c3F)ncnc2cc1OC[C@@H]1C[C@@H]2CN(C)C[C@@H]2C1 [XL-647, N-(3,4-dichloro-2-fluorophenyl)-7-({[(3aR,5r,6aS)-2-methyloctahydrocyclopenta[c]pyrrol-5-yl]methyl}oxy)-6-(methyloxy)quinazolin-4-amine]
- CD31 (% Reduction) ([1]; 3 days): 76% and 76.5%
- Ki67 (% Reduction) ([1]; 3 days): 9.62%
- CD31 (% Reduction) ([1]; 5 days): 90.18%
- Ki67 (% Reduction) ([1]; 5 days): 33.8%
- CD31 (% Reduction) ([1]; 7 days): 95.7%
- Ki67 (% Reduction) ([1]; 7 days): 50% and 48.7%
- IC50 (EphB4): 0.0014 ± 0.0002 µM
- IC50 (IGF1R): > 10 µM
- IC50 (InsR): > 26 µM
- Inhibition, 10 μM XL-647 [2]: 17.02%
- Inhibition, 10 μM XL-647 [3]: 18.01%
